From ChEMBL document CHEMBL4651402, “Screening of ~5500 FDA-approved drugs and clinical candidates for anti-SARS-CoV-2 activity” (2021)

System: SARS-CoV-2
Assay: microbe, parasite or virus in culture
Conditions: Severe acute respiratory syndrome coronavirus 2, Vero C1008, 48 h

| SMILES | IC50 [µM] | IC50 (read-out: pIC50 (converted)) [µM] |
| --- | --- | --- |
| CN1CCC(c2c[nH]c3ccc(NC(=O)c4ccc(F)cc4)cc23)CC1 | > 20 | > 20 |
| CCCCC(=O)N(Cc1ccc(-c2ccccc2-c2nnn[nH]2)cc1)[C@H](C(=O)O)C(C)C | > 20 | > 20 |
| C[N+]1(C)C[C@H](O)C[C@H]1C(=O)O | > 20 | > 20 |
| CO/N=C(\C#N)[C@@H]1CN2CCC1CC2 | > 20 | > 20 |
| CC(C)c1nc(N(C)S(C)(=O)=O)nc(-c2ccc(F)cc2)c1/C=C/C(O)CC(O)CC(=O)O (centres undefined) | > 20 | > 20 |
| CO[C@H]1C=C2CCN(C)[C@H]2C2c3cc4c(cc3C(=O)O[C@@H]21)OCO4 (some centres undefined) | > 20 | > 20 |
| CCOC(=O)/C=C/[C@H](C[C@@H]1CCNC1=O)NC(=O)[C@@H](CC(=O)[C@@H](NC(=O)c1cc(C)on1)C(C)C)Cc1ccc(F)cc1 | > 25.1 | > 25.1 |
| CCc1cc(Nc2nc(-c3ccc(-n4cnc(C)c4)c(F)c3)cs2)c(C)cc1C | > 20 | > 20 |
| O=C(Nc1ccccc1Br)N[C@H]1CCN(c2ccc(C(F)(F)F)cn2)C1 | > 20 | > 20 |
| Cc1ccc(S(=O)(=O)Nc2nc3ccccc3nc2Nc2ccc3nsnc3c2)cc1 | > 20 | > 20 |
| O=C(O)C[C@@H]1CCc2c1[nH]c1ccc(OCc3ccc(C4CCCC4)c(C(F)(F)F)c3)cc21 | > 20 | > 20 |
| O=C1c2cccnc2OC[C@@H]2CCCN12 | > 20 | > 20 |
| CCOC(=O)c1ccccc1OC(=O)CCCCCCCC(=O)Oc1ccccc1C(=O)OCC | > 20 | > 20 |
| CCN(CC)CCCCC(NC(=O)c1ccc([N+](=O)[O-])cc1)c1ccccc1 (centres undefined) | > 20 | > 20 |
| CO[C@H]1C[C@@H]2CC[C@@H](C)[C@@](O)(O2)C(=O)C(=O)N2CCCC[C@H]2C(=O)O[C@H]([C@H](C)C[C@@H]2CC[C@@H](OP(C)(C)=O)[C@H](OC)C2)CC(=O)[C@H](C)/C=C(/C)[C@@H](O)[C@@H](OC)C(=O)[C@H](C)C[C@H](C)\C=C/C=C\C=C/1C | > 20 | > 20 |
| C[C@@H]1CCC2[C@](C)(CO)[C@@H](O)CC[C@]2(C)[C@]12CCC(CO)(CCO)O2 (some centres undefined) | > 20 | > 20 |
| CCC(C)CCCCC(=O)N[C@@H](CCNCS(=O)(=O)O)C(=O)N[C@H](C(=O)N[C@@H](CCNCS(=O)(=O)O)C(=O)N[C@H]1CCNC(=O)[C@H]([C@@H](C)O)NC(=O)[C@@H](CCNCS(=O)(=O)O)NC(=O)[C@@H](CCNCS(=O)(=O)O)NC(=O)[C@H](CC(C)C)NC(=O)[C@@H](CC(C)C)NC(=O)[C@H](CCNCS(=O)(=O)O)NC1=O)[C@@H](C)O (some centres undefined) | > 20 | > 20 |
| C[C@H]1O[C@H](O[C@H]2[C@H](O)[C@@H](O)[C@@H](O[C@@H]([C@H](O)[C@@H](O)C=O)[C@H](O)CO)O[C@@H]2CO)[C@H](O)[C@@H](O)[C@@H]1N[C@H]1C=C(CO)[C@@H](O)[C@H](O)[C@H]1O.C[C@H]1O[C@H](O[C@H]2[C@H](O)[C@@H](O)[C@@H](O[C@H]3[C@H](O)[C@@H](O)[C@H](O)O[C@@H]3CO)O[C@@H]2CO)[C@H](O)[C@@H](O)[C@@H]1N[C@H]1C=C(CO)[C@@H](O)[C@H](O)[C@H]1O | > 20 | > 20 |
| COc1ccc2c(OC3CC4C(=O)NC5(C(=O)NS(=O)(=O)C6CC6)CC5/C=C\CCCCN(C)C(=O)C4C3)cc(-c3nc(C(C)C)cs3)nc2c1C (centres undefined) | > 20 | > 20 |
| C[C@@H]1C(=O)O[C@H]2[C@H](O)[C@]34[C@@H]5OC(=O)[C@]3(O[C@@H]3OC(=O)[C@H](O)C34C(C(C)(C)C)C5O)[C@@]12O (some centres undefined) | > 20 | > 20 |
| CCN1CCN(c2cc(-c3ccccc3)c3ccccc3n2)CC1 | > 20 | > 20 |
| COC(=O)N[C@@H](C(=O)N1CCC[C@@H]1c1ncc(-c2ccc(-c3ccc(-c4cnc([C@H]5CC6(CN5C(=O)[C@H](NC(=O)OC)C(C)C)OCCO6)[nH]4)cc3)cc2)[nH]1)C(C)C | > 20 | > 20 |
